Source: article PMC8465942, “Cyano- and Ketone-Containing Selenoesters as Multi-Target Compounds against Resistant Cancers” (Cancers, 2021)
Like-named read-outs stand apart in the source and are kept apart here. Marks after values point to notes of the source that are not given here.

Experiments:
[1] = Cytotoxicity (MTT) on normal MRC-5 fibroblasts; format: cell-based; settings: human
Excerpt: (§1) Three cell lines have been used in this study: the doxorubicin-sensitive Colo 205 (CCL-222, ATCC, Manassas, VA, USA) human colonic adenocarcinoma cell line; the multidrug resistant Colo 320/MDR-LRP expressing P-gp (MDR1)-LRP (CCL-220.1, ATCC) human colonic adenocarcinoma cell line; and the MRC-5 human embryonal lung fibroblast cell line (CCL-171, ATCC). The colon adenocarcinoma cell lines were purchased from LGC Promochem (Teddington, UK), and the MRC-5 cell line was purchased from Sigma-Aldrich (Merck KGaA, Darmstadt, Germany). Their culture conditions are as follows: Colo 205 (CCL-222, ATCC) and Colo 320/MDR-LRP expressing P-gp (MDR1)-LRP (CCL-220.1, ATCC) human colon adenocarcinoma cell lines were cultured in RPMI 1640 medium, supplemented with 10% FBS, 2 mM L-glutamine, 1 mM Na-pyruvate, and […]. The cell lines were incubated at 37 °C, 5% CO2, and 95% air atmosphere. The semi-adherent human colon cancer cells were detached with a Trypsin-Versene (EDTA) solution for 5 min at 37 °C. MRC-5 human embryonal lung fibroblast cells were cultured in EMEM containing 4.5 g/L of glucose and supplemented with a non-essential amino acid mixture, a selection of vitamins, and 10% FBS. The cell lines were incubated at 37 °C, 5% CO2, and 95% air atmosphere.
(§2) The effects of increasing concentrations of the compounds on cell growth were tested in 96-well flat-bottomed microtiter plates. Moreover, 10^4 of human colonic adenocarcinoma cells in 100 μL of the medium (RPMI-1640) were added to each well, except for the medium control wells. The adherent human embryonic lung fibroblast cell line was seeded in the EMEM medium for 4 h before the assay. The two-fold serial dilutions of the compounds were made in a separate plate (0.19–100 μM), and then transferred to the plates containing the adherent corresponding cell line. Culture plates were incubated at 37 °C for 24 h. At the end of the incubation period, 20 μL of MTT (thiazolyl blue tetrazolium bromide) solution (from a 5 mg/mL stock solution) were added to each well. After incubation at 37 °C for 4 h, 100 μL of sodium dodecyl sulfate (SDS) solution (10% SDS in 0.01 M HCl) was added to each well, and the plates were further incubated at 37 °C overnight. Cell growth was determined by measuring the optical density (OD) at 540 nm (ref. 630 nm) with a Multiscan EX ELISA reader (Thermo Labsystems, Cheshire, WA, USA). Inhibition of cell growth was expressed as IC50 values, defined as the inhibitory dose that reduces the growth of the cells exposed to the tested compounds by 50%. IC50 values and the SD of triplicate experiments were calculated by using GraphPad Prism software version 5.00 for Windows, with a non-linear regression curve fit (GraphPad Software, San Diego, CA, USA; www.graphpad.com, accessed on 12 July 2021). Doxorubicin (from a 2 mg/mL stock solution, Teva Pharmaceuticals) was used as a positive control.

[2] = system: HeLa (cervical adenocarcinoma); assay: Cytotoxicity on HeLa cells; format: cell-based, human; settings: ratio IC50 non-tumour cells / IC50 cancer cells
[3] = system: B16 (skin melanoma); assay: Cytotoxicity on B16 cells; format: cell-based, murine; settings: Mus musculus
Procedure: (§3) The activity of selenoesters was tested on several cancer cell lines, including HepG2 (hepatocellular carcinoma, CCL-23TM, ATCC); HeLa (cervical adenocarcinoma, CCL-2TM, ATCC); B16 (skin melanoma, CCL-6322TM, ATCC); and a non-cancerous cell line, HDF (human dermal fibroblasts, Sigma-Aldrich). HepG2, HeLa, B16, and HDF cell lines were cultivated in EMEM medium supplemented with 10% FBS, 2 mM L-glutamine, and 1% penicillin-streptomycin mixture. The HaCaT cell line was cultivated in DMEM medium supplemented with 10% FBS and 1% penicillin-streptomycin mixture. All of the cells were cultivated in a CO2 incubator (5% CO2, 37 °C). Twice per week, the cell lines were passaged according to a standardized protocol with a trypsin-EDTA solution.
(§4) The selectivity indexes (SI) were calculated as the ratio of the IC50 value in the non-tumour cells and the IC50 in the cancer cell lines. The compound’s activity towards cancer cells is considered as strongly selective if the selectivity index (SI) value is higher than 6, moderately selective if 3 < SI < 6, slightly selective if 1 < SI < 3, and non-selective if SI is lower than 1 [16].

[4] = system: Colo 205 human colonic adenocarcinoma cell line; assay: Cytotoxicity (MTT) on sensitive Colo 205 cells; format: cell-based; settings: for IC50: Homo sapiens, read-out: Colo 205 (IC50 µM) Mean; for SI MRC-5/Colo 205: ratio IC50 non-tumour cells / IC50 cancer cells
Excerpt: as §1, §2, §4

[5] = system: HaCaT cell line; assay: Toxicity on HaCaT cells (IC10 used as dose); format: cell-based; settings: Homo sapiens
Procedure: as §3, with “solution. […]” for “solution.”
Wound healing activity of selenoesters was evaluated as the ability of the cells to migrate and close the gap created on the monolayer of human keratinocytes (HaCaT cell line). The tested substances were applied in the highest possible non-toxic concentration (IC10, concentration inhibiting 10% of the population). In general, ketone-selenoesters were more toxic (except K4 and K1) than cyano-selenoesters (except N4); therefore, they were applied at lower doses (0.17–0.30 µM) when compared to cyanoselenoesters (0.36–0.64 µM). Compounds K1, K4, and N4 were applied at a concentration of 0.30, 0.46, and 0.20 µM, respectively. As could be seen in Table 8, all ketone-selenoesters stimulated wound healing more effectively in comparison to both untreated control (p < 0.0000005) and allantoin (p < 0.00005). […] Only samples N1, N2, N4, and N7 closed effectively the damaged wound in 24 h, with the gap closure around 70%.

[6] = system: HepG2 (hepatocellular carcinoma); assay: Cytotoxicity on HepG2 cells; format: cell-based; settings: Homo sapiens
Procedure: as §3, §4

[7] = concentration inhibiting 10% of the population, highest non-toxic concentration, read-out: Dose IC10
[8] = 24 h, MTT, read-out: MRC-5 (IC50 µM) Mean

| Structure (SMILES) | IC50 at 24 h [1] [µM] | SI MRC-5/HeLa [2] | IC50 [3] [µM] | IC50 ([4]; COLO 205, 24 h, MTT) [µM] | SI MRC-5/Colo 205 [4] | IC10 [5, 7] [µM] | IC50 [6] [µM] | IC50 at 24 h [1, 8] [µM] | IC50 ([4]; COLO 205, 24 h) [µM] | IC10 ([5]; read-out: Dose IC10 (µM)) [µM] |
| --- | --- | --- | --- | --- | --- | --- | --- | --- | --- | --- |
| CC(=O)C[Se]C(=O)c1ccc(F)c(Cl)c1 [K6, Se-(2-Oxopropyl) 3-Chloro-4-fluorobenzoselenoate] | 3.62 | 1.6 | 1.3 | 2.1 | 1.73 | 0.22 | 2.9 | – | – | – |
| CC(=O)C[Se]C(=O)c1cccc(C(F)(F)F)c1 [K5, Se-(2-Oxopropyl) 3-(Trifluoromethyl)benzoselenoate] | 3.11 | 1.2 | 1.1 | 2.14 | 1.45 | 0.25 | 2.4 | – | – | – |
| CC(=O)C[Se]C(=O)c1cc(F)c(F)cc1F [K8, Se-(2-Oxopropyl) 2,4,5-Trifluorobenzoselenoate] | 2.5 | 1.3 | 1.4 | 2.24 | 1.12 | 0.17 | 4 | – | – | – |
| CC(=O)C[Se]C(=O)c1ccccc1F [K2, Se-(2-Oxopropyl) 2-Fluorobenzoselenoate] | 2.53 | 1.0 | 1.2 | 3.35 | – | 0.2 | 2.2 | – | – | – |
| N#CC[Se]C(=O)c1cc(C(F)(F)F)cc(C(F)(F)F)c1 [N7, Se-(Cyanomethyl) 3,5-Bis(trifluoromethyl)benzoselenoate] | > 100 | >6 * | 1.6 | 1.98 | – | 0.61 | 11.8 | – | – | – |
| N#CC[Se]C(=O)c1cccc(F)c1 [N2, Se-(Cyanomethyl) 3-Fluorobenzoselenoate] | > 100 | >6 * | 2.6 | 2.96 | >6 * | 0.36 | 5.6 | – | – | – |
| N#CC[Se]C(=O)c1ccccc1C(F)(F)F [N4, Se-(Cyanomethyl) 2-(Trifluoromethyl)benzoselenoate] | > 100 | >6 * | 1.4 | 1.97 | – | 0.2 | 5.2 | – | – | – |
| CC(=O)C[Se]C(=O)c1ccc(C(C)(C)C)cc1 [K7, Se-(2-Oxopropyl) 4-(Tert-butyl)benzoselenoate] | – | 1.4 | 1.4 | – | 1.38 | – | 3.7 | 3.72 | 2.69 | 0.24 |
| CC(=O)C[Se]C(=O)c1cccs1 [K1, Se-(2-Oxopropyl) Thiophene-2-carboselenoate] | 2.24 | 1.5 | 1.4 | 1.53 | 1.46 | 0.3 | 2.3 | – | – | – |
| CC(=O)C[Se]C(=O)c1ccc(Br)cc1 [K3, Se-(2-Oxopropyl) 4-Bromobenzoselenoate] | – | 1.1 | 1.7 | – | 1.25 | – | 3.1 | 2.86 | 2.28 | 0.24 |
| N#CC[Se]C(=O)c1ccc(Br)cc1 [N3, Se-(Cyanomethyl) 4-Bromobenzoselenoate] | > 100 | >6 * | 2.8 | 2.1 | >6 * | 0.64 | 9.6 | – | – | – |
| CC(=O)C[Se]C(=O)c1ccccc1C(F)(F)F [K4, Se-(2-Oxopropyl) 2-(Trifluoromethyl)benzoselenoate] | – | 1.5 | 2 | – | – | – | 4.3 | 3.63 | 1.05 | 0.46 |
